The text below walks through data of patent US5523305A, “Tachykinin receptor antagonists, isoquinolones and their production” (Takeda Chemical Industries, Ltd., priority 1992, dated 1996).

T1 sequence (P14600 whole entry): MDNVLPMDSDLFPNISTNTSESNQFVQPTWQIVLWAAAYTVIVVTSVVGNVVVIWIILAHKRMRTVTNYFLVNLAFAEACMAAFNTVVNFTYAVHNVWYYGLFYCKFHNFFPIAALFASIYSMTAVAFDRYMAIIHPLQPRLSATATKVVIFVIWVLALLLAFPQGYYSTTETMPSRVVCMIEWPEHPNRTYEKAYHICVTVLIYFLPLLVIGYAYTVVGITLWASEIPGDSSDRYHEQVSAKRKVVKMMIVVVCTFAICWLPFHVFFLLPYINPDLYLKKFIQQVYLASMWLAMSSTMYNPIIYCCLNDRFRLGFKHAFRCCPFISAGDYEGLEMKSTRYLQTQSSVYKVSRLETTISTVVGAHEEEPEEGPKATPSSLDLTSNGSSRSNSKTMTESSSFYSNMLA

One assay has as its target T1, substance P receptor from rat forebrain (Rattus norvegicus, UniProt P14600).
T1 construct: The receptor was prepared from the brain of Wistar rats (male, 8 weeks old, Charles-River); from tissue; host or cells: forebrain membranes of male Wistar rats
Kind of assay: Radioligand receptor binding inhibitory assay using receptor from rat forebrain (125I-BHSP). The note with it: 25° C., 30 minutes, pH 7.4. Further details: species or system rat (Wistar). As to the method:
(1) Radioligand receptor binding inhibitory assay using receptor from rat forebrain The method of R. Qirion and […] (Neuropeptide 4, 325 (1984)) was modified and used. The receptor was prepared from the brain of Wistar rats (male, 8 weeks old, Charles-River). The rat was sacrificed by decapitation and the forebrain was isolated. The forebrain was homogenized in 30 ml/rat of 150 mM Tris-HCl buffer (pH 7.4) containing 120 mM sodium chloride and 5 mM potassium chloride using a Polytron homogenizer (Kinematika, Germany) and centrifuged at 40,000×G for 20 minutes. The pellet was suspended in 30 ml of 50 mM Tris-HCl buffer (pH 7.4) containing 300 mM potassium chloride and 10 mM ethylenediaminetetracetic acid and stirred gently with ice-cooling for 30 minutes. This suspension was centrifuged at 40,000×G for 20 minutes and the pellet was washed with 30 ml of 50 mM Tris-HCl buffer (pH 7.4). The receptor specimen thus obtained was preserved frozen (-80° C.). The above specimen was suspended in a reaction buffer (50 mM Tris-HCl buffer (pH 7.4), 0.02% bovine serum albumin, 1 mM phenylmethylsulfonyl fluoride, 2 μg/ml chymostatin, 40 μg/ml bacitracin, 3 mM manganese chloride) at a protein concentration of 1.5 mg/ml and a 100 μl portion of the suspension was used in the reaction. […] The amount of nonspecific binding was determined by adding substance P at a final concentration of 2×10^-6 M. After the reaction, using a cell harvester (290PHD, Cambridge Technology, Inc., England), rapid filtration was carried out through a glass filter (GF/B, Whatman, U.S.A.) to stop the reaction. After washings three times with 250 μl of 50 mM Tris-HCl buffer (pH 7.4) containing 0.02% bovine serum albumin, the radioactivity remaining on the filter was measured with a gamma counter. Before use, the filter was immersed in 0.1% polyethyleneimine for 24 hours and air-dried.
As for `Cc1cc2c(-c3ccccc3)c(NC(=O)NCc3ccccc3)n(C)c(=O)c2cc1C` [Example 2, N-Benzyl-N'-(1,2-dihydro-2,6,7-trimethyl-1-oxo-4-phenylisoquinolin-3-yl)ure], the IC50 stood at 19 nM.

`Cc1ccc(CNC(=O)Nc2c(-c3ccccc3)c3cc(C)c(C)cc3c(=O)n2C)cc1` [Example 16, N-(1,2-Dihydro-2,6,7-trimethyl-1-oxo-4-phenylisoquinolin-3-yl)-N'-(4-methylbenzyl)urea] registered an IC50 of 11 nM. With `Cc1cc2c(-c3ccccc3)c(NC(=O)NCc3cccs3)n(C)c(=O)c2cc1C` [Example 14, N-(1,2-Dihydro-2,6,7-trimethyl-1-oxo-4-Phenylisoquinolin-3-yl)-N'-(2-thiophenemethyl)urea], the IC50 stood at 56 nM.

In turn, `Cc1cc2c(-c3ccccc3)c(NC(=O)NCc3ccccc3C)n(C)c(=O)c2cc1C` [Example 18, N-(1,2-Dihydro-2,6,7-trimethyl-1-oxo-4-phenylisoquinolin-3-yl)-N'-(2-methylbenzyl)urea] came in with an IC50 of 14 nM. Still for that read-out and setting: then `CCn1c(NC(=O)NCc2ccccc2)c(-c2ccccc2)c2cc(C)c(C)cc2c1=O` [Example 19, N-Benzyl-N'-(2-ethyl-1,2-dihydro-6,7-dimethyl-1-oxo-4-phenylisoquinolin-3-yl)urea], with 32 nM; and `COc1ccccc1-c1c(NC(=O)NCc2ccccc2)n(C)c(=O)c2ccccc12` [Example 24, N-Benzyl-N'-[1,2-dihydro-4-(2-methoxyphenyl)-2-methyl-1-oxoisoquinolin-3-yl]urea], with 100 nM; and `Cc1cc2c(-c3ccccc3)c(NC(=O)NCC3CCCCC3)n(C)c(=O)c2cc1C` [Example 15, N-Cyclohexylmethyl-N'-(1,2-dihydro-2,6,7-trimethyl-1-oxo-4-phenylisoquinolin-3-yl)urea], with 76 nM.

Regarding `Cc1cc2c(-c3ccccc3)c(NC(=O)NCc3ccco3)n(C)c(=O)c2cc1C` [Example 12, N-(2-Furfuryl)-N'-(1,2-dihydro-2,6,7-trimethyl-1-oxo-4-phenylisoquinolin-3-yl)urea], the IC50 was found to be 64 nM. `Cc1cc2c(-c3ccccc3)c(NC(=O)NCc3ccccn3)n(C)c(=O)c2cc1C` [Example 13, N-(1,2-Dihydro-2,6,7-trimethyl-1-oxo-4-phenylisoquinolin-3-yl)-N'-(2-pyridinemethyl)urea] returned an IC50 of 42 nM.

The assay is the same for the next values; noted with them: read-out: concentration necessary to cause 50% inhibition [IC50], 25° C., 30 minutes, pH 7.4.
With `Cc1cccc(CNC(=O)Nc2c(-c3ccccc3)c3cc(C)c(C)cc3c(=O)n2C)c1` [Example 17, N-(1,2-Dihydro-2,6,7-trimethyl-1-oxo-4-phenylisoquinolin-3-yl)-N'-(3-methylbenzyl)urea], the IC50 is 18 nM.

The next assay deals with T2, substance P receptor from human lymphoblast cells (IM-9) (Homo sapiens, UniProt P25103).
T2 construct: The receptor was prepared from human lymphoblast cells (IM-9); endogenous in cells; host or cells: IM-9 human lymphoblast cells
T2 sequence (P25103 whole entry): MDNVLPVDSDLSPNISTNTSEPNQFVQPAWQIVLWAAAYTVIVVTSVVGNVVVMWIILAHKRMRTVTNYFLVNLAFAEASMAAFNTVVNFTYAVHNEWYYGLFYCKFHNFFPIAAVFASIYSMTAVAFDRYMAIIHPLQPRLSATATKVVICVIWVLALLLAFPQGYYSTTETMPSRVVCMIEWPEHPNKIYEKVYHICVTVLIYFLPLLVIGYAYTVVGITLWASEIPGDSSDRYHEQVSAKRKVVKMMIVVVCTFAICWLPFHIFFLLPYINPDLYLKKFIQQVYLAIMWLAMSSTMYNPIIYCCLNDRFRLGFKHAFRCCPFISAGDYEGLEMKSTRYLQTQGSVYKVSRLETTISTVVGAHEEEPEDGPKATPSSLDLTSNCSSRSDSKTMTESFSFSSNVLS
Put plainly: Radioligand receptor binding inhibitory assay using receptor from human lymphoblast cells (IM-9) (125I-BHSP). Particulars: human lymphoblast IM-9 cell receptor, 25° C., 30 minutes, pH 7.4. As to the method:
(2) Radioligand receptor binding inhibitory assay using receptor from human lymphoblast cells (IM-9)
The method of A. Margaret et al. [Molecular Pharmacology 42, 458 (1992)] was modified and used. The receptor was prepared from human lymphoblast cells (IM-9). IM-9 cells were grown in 175 cm^2 tissue culture flasks (100 ml×10) at a density approximately 2×10^5 /ml of RPMI 1640 with L-glutamine, 10% (V/V) heat inactivated fetal calf serum, penicillin (100 u/ml), and streptomycin (100 μg/ml) at 37° C. in 5%CO2 /95% air for 3 days. IM-9 cells were obtained by centrifugation at 500×g for 5 minutes at 5° C. The pellet obtained was washed once with phosphate buffer (Flow Laboratories, CAT. No. 28-103-05), homogenized using Polytron homogenizer(Kinematika, Germany) in 30 ml of 50 mM Tris-HCl buffer containing 120 mM NaCl, 5 mM KCl, 2 μg/ml phenylmethyl sufonyl fluoride, and 1 mM ethylenediamine tetra-acetic acid, and then centrifuged at 40,000×g for 20 minutes. The residue was washed twice with 30 ml of buffer described above, and preserved frozen (-80° C.).
The above specimen was suspended in a reaction buffer (50 mM Tris-HCl buffer (pH 7.4), 0.02% bovine serum albumin, 1 mM phenylmethylsulfonyl fluoride, 2 μg/ml chymostatin, 40 μg/ml bacitracin, 3 mM manganese chloride) at a protein concentration of 1.5 mg/ml and a 100 μl portion of the suspension was used in the reaction. After addition of the sample and 125I-BHSP (0.46 KBq), the reaction was conducted in 0.2 ml of reaction buffer at 25° C. for 30 minutes. The amount of nonspecific binding was determined by adding substance P at a final concentration of 2×10^-6 M. After the reaction, using a cell harvester (290PHD, Cambridge Technology, Inc., England), rapid filtration was carried out through a glass filter (GF/B, Whatman, U.S.A.) to stop the reaction. After washing three times with 250 μl of […] buffer (pH 7.4) containing 0.02% bovine serum albumin, the radioactivity remaining on the filter was measured with a gamma counter. Before use, the filter was immersed in 0.1% polyethyleneimine for 24 hours and air-dried.
`Cc1cc2c(-c3ccccc3)c(NC(=O)NCc3ccccc3Cl)n(C)c(=O)c2cc1C` [Example 42, N-(2-Chlorobenzyl)-N'-(1,2-dihydro-2,6,7-trimethyl-1-oxo-4-phenylisoquinolin-3-yl)urea] came in with an IC50 of 76 nM.

The assay is the same for the next values; noted with them: read-out: concentration necessary to cause 50% inhibition [IC50], human lymphoblast IM-9 cell receptor, 25° C., 30 minutes, pH 7.4.
Take `COc1ccccc1CN(C)C(=O)Nc1c(-c2ccccc2)c2cc(C)c(C)cc2c(=O)n1C` [Example 3, N-(1,2-Dihydro-2,6,7-trimethyl-1-oxo-4-phenylisoquinolin-3-yl)-N'-(2-methoxybenzyl)-N'-methylurea]: the IC50 was 23 nM. Still for that read-out and setting: then `Cc1cc2c(-c3ccccc3)c(NC(=O)N(C)Cc3ccccc3)n(C)c(=O)c2cc1C` [Example 1, N-Benzyl-N'-(1,2-dihydro-2,6,7-trimethyl-1-oxo-4-phenylisoquinolin-3-yl)-N-methylurea], with 16 nM; and `CCN(Cc1ccccc1)C(=O)Nc1c(-c2ccccc2)c2cc(C)c(C)cc2c(=O)n1C` [Example 53, N-Benzyl-N-ethyl-N'-(1,2-dihydro-2,6,7-trimethyl-1-oxo-4-phenylisoquinolin-3-yl)urea], with 66 nM; and `Cc1cc2c(-c3ccccc3)c(NC(=O)N(C)Cc3ccccc3Cl)n(C)c(=O)c2cc1C` [Example 52], with 4.2 nM.
